The text below walks through data of BindingDB's records for doi:10.1016/j.bmcl.2011.03.003 (Sanofi-Aventis, 2011).

As a reminder, the IC50 is the concentration at which inhibition is half-maximal.

The assay deals with Insulin-like growth factor 1 receptor (Homo sapiens, UniProt P08069). The assay is described as follows: Inhibition of IGF-induced autophosphosphorylation of GST-tagged human IGF1R expressed in SF21 cells by time resolved-fluorescent assay.
Chain of Insulin-like growth factor 1 receptor (P08069 31-736 limits assumed): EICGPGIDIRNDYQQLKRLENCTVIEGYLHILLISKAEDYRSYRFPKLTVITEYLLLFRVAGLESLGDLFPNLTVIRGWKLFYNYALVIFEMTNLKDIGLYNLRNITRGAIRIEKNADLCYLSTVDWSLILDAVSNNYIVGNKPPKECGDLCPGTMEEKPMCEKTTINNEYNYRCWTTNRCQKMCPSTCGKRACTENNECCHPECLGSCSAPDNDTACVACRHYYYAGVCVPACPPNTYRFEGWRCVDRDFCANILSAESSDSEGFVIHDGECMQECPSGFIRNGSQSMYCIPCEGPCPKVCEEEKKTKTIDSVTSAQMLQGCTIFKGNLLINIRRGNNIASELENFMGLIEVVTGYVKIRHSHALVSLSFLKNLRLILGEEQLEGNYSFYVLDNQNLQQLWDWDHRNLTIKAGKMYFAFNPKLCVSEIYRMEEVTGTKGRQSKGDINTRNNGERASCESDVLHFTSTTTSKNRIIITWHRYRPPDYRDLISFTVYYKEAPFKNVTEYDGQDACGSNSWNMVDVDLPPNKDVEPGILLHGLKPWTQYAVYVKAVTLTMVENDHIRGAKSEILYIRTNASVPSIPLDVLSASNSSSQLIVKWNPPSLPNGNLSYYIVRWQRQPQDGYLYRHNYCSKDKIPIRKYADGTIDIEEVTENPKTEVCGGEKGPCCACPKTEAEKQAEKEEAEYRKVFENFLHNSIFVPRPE
Chain of Insulin-like growth factor 1 receptor (P08069 741-1367 limits assumed): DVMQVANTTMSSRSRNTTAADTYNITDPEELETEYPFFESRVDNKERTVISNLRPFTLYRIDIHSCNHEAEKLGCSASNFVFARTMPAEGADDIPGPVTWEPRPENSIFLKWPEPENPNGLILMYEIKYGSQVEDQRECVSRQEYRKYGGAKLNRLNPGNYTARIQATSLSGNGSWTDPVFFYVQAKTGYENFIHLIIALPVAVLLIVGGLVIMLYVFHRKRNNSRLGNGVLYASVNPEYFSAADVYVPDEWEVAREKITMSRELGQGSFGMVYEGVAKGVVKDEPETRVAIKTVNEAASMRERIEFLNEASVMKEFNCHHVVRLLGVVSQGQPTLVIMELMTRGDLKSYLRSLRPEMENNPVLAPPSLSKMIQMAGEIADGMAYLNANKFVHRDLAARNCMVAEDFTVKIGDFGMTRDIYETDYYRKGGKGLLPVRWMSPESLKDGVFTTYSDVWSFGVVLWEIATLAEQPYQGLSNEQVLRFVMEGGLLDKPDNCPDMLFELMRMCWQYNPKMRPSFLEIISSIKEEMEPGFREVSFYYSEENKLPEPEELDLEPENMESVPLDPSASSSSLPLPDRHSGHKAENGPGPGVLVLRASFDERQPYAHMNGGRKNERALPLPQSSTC

For `Cc1c(O)n(-c2ccc(S(=O)(=O)C(F)(F)F)cc2)c(=O)n1Cc1cnc[nH]1` [(S)-1-((1H-imidazol-4-yl)methyl)-5-methyl-3-(4-(trifluoromethylsulfonyl)phenyl)imidazolidine-2,4-dione], the concentration for half-maximal inhibition (IC50) was over 100 µM.

As to `Cc1c(O)n(-c2ccc(S(=O)(=O)C(F)(F)F)cc2)c(=O)n1Cc1cncc2ccccc12` [(S)-1-(isoquinolin-4-ylmethyl)-5-methyl-3-(4-(trifluoromethylsulfonyl)phenyl)imidazolidine-2,4-dione], the concentration for half-maximal inhibition (IC50) was over 100 µM. As for `Cc1c(O)n(-c2ccc(S(=O)(=O)C(F)(F)F)cc2)c(=O)n1Cc1ccccc1` [(S)-1-benzyl-5-methyl-3-(4-(trifluoromethylsulfonyl)phenyl)imidazolidine-2,4-dione], the figure is over 100 µM; as for `Cc1c(O)n(-c2ccc(S(=O)(=O)C(F)(F)F)cc2)c(=O)n1Cc1cc[n+]([O-])cc1` [(S)-4-((5-methyl-2,4-dioxo-3-(4-(trifluoromethylsulfonyl)phenyl)imidazolidin-1-yl)methyl)pyridine 1-oxide], over 100 µM. In turn, `Cc1c(O)n(-c2ccc(S(=O)(=O)C(F)(F)F)cc2)c(=O)n1Cc1cc[n+]([O-])c2ccccc12` [(S)-4-((5-methyl-2,4-dioxo-3-(4-(trifluoromethylsulfonyl)phenyl)imidazolidin-1-yl)methyl)quinoline 1-oxide] gave an IC50 of over 100 µM.

Turning to `Cc1c(O)n(-c2ccc(S(=O)(=O)C(F)(F)F)cc2)c(=O)n1CC1CCNCC1` [(S)-5-methyl-1-(piperidin-4-ylmethyl)-3-(4-(trifluoromethylsulfonyl)phenyl)imidazolidine-2,4-dione], the half-inhibitory concentration (IC50) was over 100 µM. As for `Cc1c(O)n(-c2ccc(S(=O)(=O)C(F)(F)F)cc2)c(=O)n1Cc1ccccn1` [(S)-5-methyl-1-(pyridin-2-ylmethyl)-3-(4-(trifluoromethylsulfonyl)phenyl)imidazolidine-2,4-dione], the figure is over 100 µM; as for `Cc1c(O)n(-c2ccc(S(C)(=O)=O)cc2)c(=O)n1Cc1ccnc2ccccc12` [(S)-5-methyl-3-(4-(methylsulfonyl)phenyl)-1-(quinolin-4-ylmethyl)imidazolidine-2,4-dione], over 100 µM.
